Data from patent US11987648B2, “Cyclohexapeptides as selective somatostatin SST5 receptor agonists” (Heptares Therapeutics Limited, priority 2018, dated 2024).
*1 amine or outer side, *2 acyl side, *3 side chain or, on linkers, in order; H or OH if unused. Where a SMILES comes first, the peptide text is derived from it. Side-chain parts run from the residue outwards. [ ]: non-standard residue; d: D form. The star is where a group is joined. Ala(piperidin-4-yl) = O=C([C@H](CC1CCN([*:3])CC1)N[*:1])[*:2]; dTrp(4-OMe) = COc1cccc2[nH]cc(C[C@@H](N)C(=O)O)c12; X8 = COc1cc2c(cc1OC)CN([*:1])[C@H](C(=O)[*:2])C2; dTrp(4-Me) = Cc1cccc2[nH]cc(C[C@@H](N)C(=O)O)c12; Ala(piperazin-1-yl) = N[C@@H](CN1CCNCC1)C(=O)O; Tyr(Ph) = N[C@@H](Cc1ccc(Oc2ccccc2)cc1)C(=O)O; X7 = NCCOC(=O)N1CCN([*:1])[C@H](C(=O)[*:2])C1; Morpholine(3S-CO) = O=C(O)[C@@H]1COCCN1; Pro(4,4-F2) = O=C(O)[C@@H]1CC(F)(F)CN1; Ethylenediamine = C(CN[*:2])N[*:1]; d(hPhe) = N[C@H](CCc1ccccc1)C(=O)O; Hyp = O=C(O)[C@@H]1C[C@@H](O)CN1; NMeF = CN[C@@H](Cc1ccccc1)C(=O)O; Pip(4-aza) = O=C(O)[C@@H]1CNCCN1; hPhe = N[C@@H](CCc1ccccc1)C(=O)O; 3Pal = N[C@@H](Cc1cccnc1)C(=O)O; Cyclohexylmethyl = C1CCC(C*)CC1; Tic = O=C(O)[C@@H]1Cc2ccccc2CN1; Benzyl(4-Cl) = Clc1ccc(C*)cc1; Phg = N[C@H](C(=O)O)c1ccccc1; X9 = O=C(C1CNCCN1[*:1])[*:2]; Pip = O=C(O)[C@@H]1CCCCN1; X3 = CN[C@H]1CCN(*)C1; CO = O=C([*:1])[*:2]; Bn = c1ccc(C*)cc1

Columns and labels:
[1] = molecular target: SST2 (Homo sapiens, UniProt P30874); experiment: Hit Hunter cAMP XS+ assay, SST2 activation via Gi (reduction of forskolin-stimulated cAMP); assay type: cell-based; conditions: for Emax: read-out: SST2 (EMax); for EC50: reduction of forskolin-stimulated cAMP, 4-parameter logistic fit, read-out: SST2 pEC50 (converted)
Procedure, shortened: (§1)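 Cells (10,000/well) incubated 30 min at 37 °C with compound under EC80 forskolin ([…] for SST2, 15 μM for SST5). cAMP reduction was detected by enzyme-fragment complementation chemiluminescence after 60 min and 180 min room-temperature reagent steps. Potency and efficacy were both measured.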

[2] = molecular target: SST5 (Homo sapiens, UniProt P35346); experiment: Hit Hunter cAMP XS+ assay, SST5 activation via Gi (reduction of forskolin-stimulated cAMP); assay type: cell-based; conditions: for Emax: read-out: SST5 (EMax); for EC50: reduction of forskolin-stimulated cAMP, 4-parameter logistic fit, read-out: SST5 pEC50 (converted); for SST5/2 Selectivity: selectivity for SST5 over SST2
Procedure, shortened: as §1

SST2, sequence (P30874 whole entry, the tested form may be a part): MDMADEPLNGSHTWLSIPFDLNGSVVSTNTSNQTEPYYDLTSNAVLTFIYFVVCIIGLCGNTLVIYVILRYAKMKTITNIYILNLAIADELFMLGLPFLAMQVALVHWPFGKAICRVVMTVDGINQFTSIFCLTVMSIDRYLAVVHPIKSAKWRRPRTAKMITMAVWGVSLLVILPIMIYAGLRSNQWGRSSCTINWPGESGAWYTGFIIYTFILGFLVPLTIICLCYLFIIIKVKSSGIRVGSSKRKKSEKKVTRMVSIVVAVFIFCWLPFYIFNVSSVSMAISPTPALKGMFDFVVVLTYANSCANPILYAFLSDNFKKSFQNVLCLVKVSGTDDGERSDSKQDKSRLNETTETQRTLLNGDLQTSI
SST5, sequence (P35346 whole entry): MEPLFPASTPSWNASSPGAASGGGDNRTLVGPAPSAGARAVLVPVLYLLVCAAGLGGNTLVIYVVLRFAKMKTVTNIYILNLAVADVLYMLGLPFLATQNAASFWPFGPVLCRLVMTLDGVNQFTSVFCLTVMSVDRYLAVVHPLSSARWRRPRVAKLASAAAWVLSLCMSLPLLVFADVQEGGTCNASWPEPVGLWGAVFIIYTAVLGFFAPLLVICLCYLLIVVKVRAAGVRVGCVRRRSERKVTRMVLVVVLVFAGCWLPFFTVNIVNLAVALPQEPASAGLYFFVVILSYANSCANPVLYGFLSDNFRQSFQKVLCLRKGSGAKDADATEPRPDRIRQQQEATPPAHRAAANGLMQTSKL

Emax [1] [%]	EC50 [1] [nM]	Emax [2] [%]	EC50 [2] [nM]	SST5/2 Selectivity [2]	SMILES
85.9	> 10000	106	10	1120.0	COc1ccc(C[C@@H]2NC(=O)[C@H](Cc3ccc(OCc4ccccc4)cc3)NC(=O)[C@H](CC3CCNCC3)NC(=O)[C@@H](Cc3c[nH]c4ccccc34)NC(=O)[C@@H](CCc3ccccc3)NC(=O)[C@@H]3C[C@@H](OC(=O)NCCN)CN3C2=O)cc1 [Example 55] (cyclo([Hyp]([CO-Ethylenediamine])[d(hPhe)][dW][Ala(piperidin-4-yl)]Y(Bn)Y(Me)))
96.5	200	102	0.501	404.6	CN1C(=O)[C@H](Cc2ccc(OCc3ccccc3)cc2)NC(=O)[C@H](CN2CCNCC2)NC(=O)[C@@H](Cc2c[nH]c3ccccc23)NC(=O)[C@H](CCc2ccccc2)NC(=O)[C@@H]2C[C@@H](OC(=O)NCCN)CN2C(=O)[C@@H]1Cc1ccccc1 [Example 57] (cyclo([Hyp]([CO-Ethylenediamine])[hPhe][dW][Ala(piperazin-1-yl)]Y(Bn)[NMeF]))
42.9	> 10000	103	15.8	695.7	NCCNC(=O)O[C@@H]1C[C@H]2C(=O)N[C@H](CCc3ccccc3)C(=O)N[C@H](Cc3c[nH]c4ccccc34)C(=O)N[C@@H](CN3CCNCC3)C(=O)N[C@@H](Cc3ccc(OCc4ccc(Cl)cc4)cc3)C(=O)N[C@@H](Cc3cccnc3)C(=O)N2C1 [Example 58] (cyclo([3Pal][Hyp]([CO-Ethylenediamine])[d(hPhe)][dW][Ala(piperazin-1-yl)]Y(Benzyl(4-Cl))))
95.7	501	106	0.631	738.9	NCCNC(=O)O[C@@H]1C[C@H]2C(=O)N[C@@H](CCc3ccccc3)C(=O)N[C@H](Cc3c[nH]c4ccccc34)C(=O)N[C@@H](CN3CCNCC3)C(=O)N[C@@H](Cc3ccc(OCc4ccc(Cl)cc4)cc3)C(=O)N[C@@H](Cc3cccnc3)C(=O)N2C1 [Example 59] (cyclo([3Pal][Hyp]([CO-Ethylenediamine])[hPhe][dW][Ala(piperazin-1-yl)]Y(Benzyl(4-Cl))))
99.8	126	104	1	129.4	Cc1cccc2[nH]cc(C[C@H]3NC(=O)[C@H](CCc4ccccc4)NC(=O)[C@@H]4C[C@@H](OC(=O)NCCN)CN4C(=O)[C@H](Cc4cccnc4)NC(=O)[C@H](Cc4ccc(OCc5ccccc5)cc4)NC(=O)[C@H](CC4CCNCC4)NC3=O)c12 [Example 60] (cyclo([3Pal][Hyp]([CO-Ethylenediamine])[hPhe][dTrp(4-Me)][Ala(piperidin-4-yl)]Y(Bn)))
23.4	> 10000	103	31.6	291.4	O=C1N[C@@H](Cc2ccc(OCc3ccccc3)cc2)C(=O)N2Cc3ccccc3C[C@H]2C(=O)N2CCOC[C@H]2C(=O)N[C@H](CCc2ccccc2)C(=O)N[C@H](Cc2c[nH]c3ccccc23)C(=O)N[C@H]1CN1CCNCC1 [Example 61] (cyclo([Tic][Morpholine(3S-CO)][d(hPhe)][dW][Ala(piperazin-1-yl)]Y(Bn)))
99.4	631	102	3.16	224.3	O=C1N[C@@H](Cc2ccc(OCc3ccccc3)cc2)C(=O)N2Cc3ccccc3C[C@H]2C(=O)N2CCOC[C@H]2C(=O)N[C@H](CCc2ccccc2)C(=O)N[C@H](Cc2c[nH]c3ccccc23)C(=O)N[C@H]1CC1CCNCC1 [Example 62] (cyclo([Tic][Morpholine(3S-CO)][d(hPhe)][dW][Ala(piperidin-4-yl)]Y(Bn)))
102	63.1	104	2.51	24.4	COc1cccc2[nH]cc(C[C@H]3NC(=O)[C@@H](CCc4ccccc4)NC(=O)[C@@H]4COCCN4C(=O)[C@@H]4Cc5ccccc5CN4C(=O)[C@H](Cc4ccc(OCc5ccccc5)cc4)NC(=O)[C@H](CN4CCNCC4)NC3=O)c12 [Example 63] (cyclo([Tic][Morpholine(3S-CO)][d(hPhe)][dTrp(4-OMe)][Ala(piperazin-1-yl)]Y(Bn)))
100	100	104	15.8	5.5	COc1cccc2[nH]cc(C[C@H]3NC(=O)[C@H](c4ccccc4)NC(=O)[C@@H]4C[C@@H](OC(=O)NCCN)CN4C(=O)[C@H](Cc4ccccc4)NC(=O)[C@H](Cc4ccc(OCc5ccccc5)cc4)NC(=O)[C@H](CN4CCNCC4)NC3=O)c12 [Example 64] (cyclo(F[Hyp]([CO-Ethylenediamine])[Phg][dTrp(4-OMe)][Ala(piperazin-1-yl)]Y(Bn)))
91.8	1000	99.4	0.398	2293.7	O=C1N[C@@H](CCc2ccccc2)C(=O)N[C@H](Cc2c[nH]c3ccccc23)C(=O)N[C@@H](CN2CCNCC2)C(=O)N[C@@H](Cc2ccc(OCc3ccccc3)cc2)C(=O)N2Cc3ccccc3C[C@H]2C(=O)N2CCNCC12 (some centres unmarked) [Example 65] (cyclo([Tic][X9][hPhe][dW][Ala(piperazin-1-yl)]Y(Bn)))
51.1	> 10000	103	1.26	7454.5	COc1cc2c(cc1OC)CN1C(=O)[C@H](Cc3ccc(OCc4ccccc4)cc3)NC(=O)[C@H](CC3CCNCC3)NC(=O)[C@@H](Cc3c[nH]c4ccccc34)NC(=O)[C@H](CCc3ccccc3)NC(=O)[C@@H]3C[C@@H](OC(=O)NCCN)CN3C(=O)[C@@H]1C2 [Example 66] (cyclo([Hyp]([CO-Ethylenediamine])[hPhe][dW][Ala(piperidin-4-yl)]Y(Bn)[X8]))
98.3	398	104	15.8	25.7	NCCNC(=O)O[C@@H]1C[C@H]2C(=O)N[C@@H](CCc3ccccc3)C(=O)N[C@H](Cc3c[nH]c4ccccc34)C(=O)N[C@@H](CC3CCNCC3)C(=O)N[C@@H](Cc3ccc(Oc4ccccc4)cc3)C(=O)N[C@@H](Cc3cccnc3)C(=O)N2C1 [Example 67] (cyclo([3Pal][Hyp]([CO-Ethylenediamine])[hPhe][dW][Ala(piperidin-4-yl)][Tyr(Ph)]))
99.1	251	98.8	0.316	791.6	COc1cccc2[nH]cc(C[C@H]3NC(=O)[C@H](CCc4ccccc4)NC(=O)[C@@H]4COCCN4C(=O)[C@@H]4Cc5ccccc5CN4C(=O)[C@H](Cc4ccc(OCc5ccccc5)cc4)NC(=O)[C@H](CN4CCNCC4)NC3=O)c12 [Example 68] (cyclo([Tic][Morpholine(3S-CO)][hPhe][dTrp(4-OMe)][Ala(piperazin-1-yl)]Y(Bn)))
69	> 10000	103	79.4	124.3	NCCNC(=O)O[C@@H]1C[C@H]2C(=O)N[C@@H](CCc3ccccc3)C(=O)N[C@H](Cc3c[nH]c4ccccc34)C(=O)N[C@@H](CN3CCNCC3)C(=O)N[C@@H](Cc3ccc(OCc4ccccc4)cc3)C(=O)N3CCCC[C@H]3C(=O)N2C1 [Example 69] (cyclo([Hyp]([CO-Ethylenediamine])[hPhe][dW][Ala(piperazin-1-yl)]Y(Bn)[Pip]))
77.9	> 10000	102	5.01	1815.8	NCCNC(=O)O[C@@H]1C[C@H]2C(=O)N[C@@H](CCc3ccccc3)C(=O)N[C@H](Cc3c[nH]c4ccccc34)C(=O)N[C@@H](CN3CCNCC3)C(=O)N[C@@H](Cc3ccc(OCc4ccccc4)cc3)C(=O)N3CC(F)(F)C[C@H]3C(=O)N2C1 [Example 70] (cyclo([Hyp]([CO-Ethylenediamine])[hPhe][dW][Ala(piperazin-1-yl)]Y(Bn)[Pro(4,4-F2)]))
52.8	> 10000	103	63.1	171.4	NCCNC(=O)O[C@@H]1C[C@H]2C(=O)N[C@H](CCc3ccccc3)C(=O)N[C@H](Cc3c[nH]c4ccccc34)C(=O)N[C@@H](CN3CCNCC3)C(=O)N[C@@H](Cc3ccc(OCC4CCCCC4)cc3)C(=O)N[C@@H](Cc3cccnc3)C(=O)N2C1 [Example 71] (cyclo([3Pal][Hyp]([CO-Ethylenediamine])[d(hPhe)][dW][Ala(piperazin-1-yl)]Y(Cyclohexylmethyl)))
14	> 10000	101	6.31	1621.3	NCCOC(=O)N1CCN2C(=O)[C@@H]3Cc4ccccc4CN3C(=O)[C@H](Cc3ccc(OCc4ccccc4)cc3)NC(=O)[C@H](CN3CCNCC3)NC(=O)[C@@H](Cc3c[nH]c4ccccc34)NC(=O)[C@H](CCc3ccccc3)NC(=O)[C@@H]2C1 [Example 72] (cyclo([Tic][X7][hPhe][dW][Ala(piperazin-1-yl)]Y(Bn)))
99.2	398	94.9	0.631	566.7	O=C1N[C@@H](Cc2ccc(OCc3ccccc3)cc2)C(=O)N2Cc3ccccc3C[C@H]2C(=O)N2CCNC[C@H]2C(=O)N[C@@H](CCc2ccccc2)C(=O)N[C@H](Cc2c[nH]c3ccccc23)C(=O)N[C@H]1CC1CCNCC1 [Example 73] (cyclo([Tic][Pip(4-aza)][hPhe][dW][Ala(piperidin-4-yl)]Y(Bn)))
76.2	3160	106	1.26	2726.7	CN[C@H]1CCN(C(=O)O[C@@H]2C[C@H]3C(=O)N[C@@H](CCc4ccccc4)C(=O)N[C@H](Cc4c[nH]c5ccccc45)C(=O)N[C@@H](CC4CCNCC4)C(=O)N[C@@H](Cc4ccc(OCc5ccccc5)cc4)C(=O)N4Cc5ccccc5C[C@H]4C(=O)N3C2)C1 [Example 78] (cyclo([Hyp]([CO-X3])[hPhe][dW][Ala(piperidin-4-yl)]Y(Bn)[Tic]))
